Results published in the CheMixHub viscosity set.
Several values for one entry are separate records, joined by “and”; a condition that tells them apart may be missing. Identical values can stand only once. ± gives the uncertainty stated by the source.

Experiment: xn = mol fraction of the nth substance listed

O=C([O-])[O-].[Na+].[Na+] + O
Details	viscosity
293.15 K, 101.33 kPa, x1 = 0.0032	1.085 ± 0.056 mPa·s
293.15 K, 101.33 kPa, x1 = 0.0051	1.152 ± 0.06 mPa·s
293.15 K, 101.33 kPa, x1 = 0.008	1.264 ± 0.066 mPa·s
293.15 K, 101.33 kPa, x1 = 0.0115	1.414 ± 0.073 mPa·s
293.15 K, 101.33 kPa, x1 = 0.0152	1.593 ± 0.083 mPa·s
293.15 K, 101.33 kPa, x1 = 0.0197	1.844 ± 0.095 mPa·s
293.15 K, 101.33 kPa, x1 = 0.0224	2.015 ± 0.11 mPa·s
293.15 K, 101.33 kPa, x1 = 0.0255	2.232 ± 0.12 mPa·s
293.15 K, 101.33 kPa, x1 = 0.0288	2.49 ± 0.13 mPa·s
293.65 K, 100 kPa, x1 = 0.00502	1.145 ± 0.012 mPa·s
298.15 K, 101 kPa, x1 = 0.0002	0.95 ± 0.02 mPa·s
298.15 K, 101 kPa, x1 = 0.001	0.95 ± 0.02 mPa·s
298.15 K, 101 kPa, x1 = 0.0027	0.99 ± 0.02 mPa·s
298.15 K, 101 kPa, x1 = 0.00397	1.01 ± 0.02 mPa·s
298.15 K, 101.33 kPa, x1 = 0.0032	0.96 ± 0.047 mPa·s
298.15 K, 101.33 kPa, x1 = 0.0051	1.018 ± 0.052 mPa·s
298.15 K, 101.33 kPa, x1 = 0.008	1.113 ± 0.057 mPa·s
298.15 K, 101.33 kPa, x1 = 0.0115	1.242 ± 0.064 mPa·s
298.15 K, 101.33 kPa, x1 = 0.0152	1.395 ± 0.072 mPa·s
298.15 K, 101.33 kPa, x1 = 0.0197	1.609 ± 0.082 mPa·s
298.15 K, 101.33 kPa, x1 = 0.0224	1.753 ± 0.091 mPa·s
298.15 K, 101.33 kPa, x1 = 0.0255	1.937 ± 0.1 mPa·s
298.15 K, 101.33 kPa, x1 = 0.0288	2.155 ± 0.12 mPa·s
301.15 K, 100 kPa, x1 = 0.0101	1.115 ± 0.012 mPa·s and 1.117 ± 0.012 mPa·s
303.15 K, 101 kPa, x1 = 0.002	0.836 ± 0.007 mPa·s
303.15 K, 101 kPa, x1 = 0.005	0.923 ± 0.008 mPa·s
303.15 K, 101 kPa, x1 = 0.009	1.026 ± 0.009 mPa·s
303.15 K, 101.33 kPa, x1 = 0.0032	0.864 ± 0.044 mPa·s
303.15 K, 101.33 kPa, x1 = 0.0051	0.915 ± 0.047 mPa·s
303.15 K, 101.33 kPa, x1 = 0.008	0.998 ± 0.051 mPa·s
303.15 K, 101.33 kPa, x1 = 0.0115	1.11 ± 0.057 mPa·s
303.15 K, 101.33 kPa, x1 = 0.0152	1.244 ± 0.064 mPa·s
303.15 K, 101.33 kPa, x1 = 0.0197	1.429 ± 0.072 mPa·s
303.15 K, 101.33 kPa, x1 = 0.0224	1.554 ± 0.08 mPa·s
303.15 K, 101.33 kPa, x1 = 0.0255	1.712 ± 0.088 mPa·s
303.15 K, 101.33 kPa, x1 = 0.0288	1.9 ± 0.096 mPa·s
306.65 K, 100 kPa, x1 = 0.0101	0.987 ± 0.011 mPa·s
308.15 K, 101 kPa, x1 = 0.002	0.763 ± 0.007 mPa·s
308.15 K, 101 kPa, x1 = 0.005	0.842 ± 0.008 mPa·s
308.15 K, 101 kPa, x1 = 0.009	0.931 ± 0.008 mPa·s
308.65 K, 100 kPa, x1 = 0.00502	0.825 ± 0.009 mPa·s
311.15 K, 100 kPa, x1 = 0.0168	1.1 ± 0.012 mPa·s
311.15 K, 100 kPa, x1 = 0.02299	1.331 ± 0.014 mPa·s and 1.332 ± 0.014 mPa·s
313.15 K, 101 kPa, x1 = 0.0002	0.7 ± 0.1 mPa·s
313.15 K, 101 kPa, x1 = 0.001	0.7 ± 0.1 mPa·s
313.15 K, 101 kPa, x1 = 0.002	0.694 ± 0.006 mPa·s
313.15 K, 101 kPa, x1 = 0.0027	0.72 ± 0.02 mPa·s
313.15 K, 101 kPa, x1 = 0.00397	0.74 ± 0.02 mPa·s
313.15 K, 101 kPa, x1 = 0.005	0.763 ± 0.007 mPa·s
313.15 K, 101 kPa, x1 = 0.009	0.846 ± 0.008 mPa·s

O=S(=O)([O-])c1ccc(O)cc1.[Na+] + O
viscosity [mPa·s], 101 kPa
Details	x1 = 9e-05	x1 = 0.00018	x1 = 0.0009	x1 = 0.0018	x1 = 0.00448	x1 = 0.00893	x1 = 0.0133	x1 = 0.0177
298.15 K	0.899 ± 0.009	0.9 ± 0.009	0.915 ± 0.009	0.931 ± 0.009	0.988 ± 0.01	1.085 ± 0.011	1.196 ± 0.01	1.321 ± 0.011
318.15 K	0.598 ± 0.006	0.599 ± 0.006	0.608 ± 0.006	0.62 ± 0.006	0.656 ± 0.006	0.715 ± 0.007	0.786 ± 0.007	0.86 ± 0.008

OC[C@@H](O)[C@H](O)[C@@H](O)CO + O
viscosity [mPa·s], 101.3 kPa
Details	x1 = 0.00359	x1 = 0.007154	x1 = 0.0107	x1 = 0.01421	x1 = 0.0177	x1 = 0.02631	x1 = 0.03478	x1 = 0.0431	x1 = 0.05127
293.15 K	1.06 ± 0.06	1.14 ± 0.07	–	1.32 ± 0.08	–	1.72 ± 0.1	2.09 ± 0.13	2.42 ± 0.15	2.85 ± 0.17
303.15 K	0.85 ± 0.05	0.91 ± 0.06	0.99 ± 0.06	1.04 ± 0.06	–	1.33 ± 0.08	1.53 ± 0.09	1.8 ± 0.11	2.1 ± 0.13
313.15 K	0.69 ± 0.04	0.78 ± 0.05	0.79 ± 0.05	0.83 ± 0.05	0.9 ± 0.05	1.02 ± 0.06	1.19 ± 0.07	1.38 ± 0.08	1.6 ± 0.1
323.15 K	0.58 ± 0.04	0.62 ± 0.04	–	0.69 ± 0.04	0.75 ± 0.05	0.85 ± 0.05	0.96 ± 0.06	1.1 ± 0.07	1.25 ± 0.08

COC(C)=O + O=C1CCCO1
298.15 K, 101.33 kPa
Details	viscosity [mPa·s]
x1 = 0.0471	1.585 ± 0.012
x1 = 0.1055	1.467 ± 0.011
x1 = 0.1514	1.365 ± 0.011
x1 = 0.2015	1.254 ± 0.01
x1 = 0.2517	1.16 ± 0.009
x1 = 0.293	1.091 ± 0.009
x1 = 0.4005	0.902 ± 0.007
x1 = 0.4297	0.858 ± 0.007
x1 = 0.4981	0.746 ± 0.006
x1 = 0.5486	0.678 ± 0.006
x1 = 0.5907	0.632 ± 0.005
x1 = 0.701	0.52 ± 0.005
x1 = 0.745	0.485 ± 0.004
x1 = 0.7921	0.446 ± 0.004
x1 = 0.8471	0.416 ± 0.004
x1 = 0.9005	0.378 ± 0.004
x1 = 0.9509	0.369 ± 0.004

COCCOC + O=Cc1ccccc1
298.15 K, 101 kPa
Details	viscosity [mPa·s]
x1 = 0.1157	1.225 ± 0.03
x1 = 0.2274	1.082 ± 0.027
x1 = 0.3354	0.954 ± 0.024
x1 = 0.4398	0.841 ± 0.021
x1 = 0.5408	0.741 ± 0.019
x1 = 0.6385	0.655 ± 0.017
x1 = 0.7332	0.58 ± 0.016
x1 = 0.8249	0.515 ± 0.014
x1 = 0.9138	0.458 ± 0.013

OCCNCCO + O=S1(=O)CCCC1
viscosity [mPa·s], 101 kPa
Details	x2 = 0.0999	x2 = 0.2999	x2 = 0.4687	x2 = 0.6712	x2 = 0.8322
303.15 K	262.7 ± 38	125.4 ± 10	63.49 ± 1.3	14.99 ± 0.32	12.62 ± 0.28
323.15 K	73.14 ± 2.4	32.73 ± 0.67	15.33 ± 0.33	9.455 ± 0.22	7.362 ± 0.19

COCCOC + O=[N+]([O-])c1ccccc1
298.15 K, 101 kPa
Details	viscosity [mPa·s]
x1 = 0.1318	1.472 ± 0.035
x1 = 0.2546	1.27 ± 0.031
x1 = 0.3693	1.087 ± 0.027
x1 = 0.4766	0.929 ± 0.023
x1 = 0.5774	0.793 ± 0.02
x1 = 0.672	0.688 ± 0.018
x1 = 0.7612	0.599 ± 0.016
x1 = 0.8453	0.523 ± 0.015
x1 = 0.9248	0.462 ± 0.013

O=C(O)c1ccccc1 + O=[N+]([O-])c1ccccc1
viscosity [mPa·s], 101 kPa
Details	x1 = 0.09745	x1 = 0.108	x1 = 0.139	x1 = 0.1489	x1 = 0.175
308.15 K	1.746 ± 0.046	–	–	–	–
313.15 K	1.626 ± 0.043	1.626 ± 0.016	1.675 ± 0.016	1.746 ± 0.046	1.746 ± 0.017
318.15 K	1.503 ± 0.04	–	–	1.611 ± 0.042	–
323.15 K	1.397 ± 0.037	–	–	1.492 ± 0.039	–

c1ccc2ncccc2c1 + OCC(F)(F)F
viscosity [mPa·s], 101.33 kPa
Details	298.15 K	303.15 K	308.15 K	313.15 K	318.15 K	323.15 K
x1 = 0.16	2.34 ± 0.02	2.05 ± 0.02	1.84 ± 0.02	1.62 ± 0.02	1.46 ± 0.02	1.32 ± 0.01
x1 = 0.34	2.91 ± 0.03	2.57 ± 0.03	2.27 ± 0.02	2.04 ± 0.02	1.83 ± 0.02	1.65 ± 0.02
x1 = 0.54	3.14 ± 0.03	2.79 ± 0.03	2.46 ± 0.03	2.21 ± 0.02	2 ± 0.02	1.82 ± 0.02
x1 = 0.76	3.17 ± 0.04	2.8 ± 0.03	2.49 ± 0.03	2.25 ± 0.03	2.05 ± 0.02	1.87 ± 0.02

COc1ccccc1N + OCCCl
viscosity [mPa·s], 100 kPa
Details	x1 = 0.1041	x1 = 0.2448	x1 = 0.3401	x1 = 0.4623	x1 = 0.5621	x1 = 0.6825	x1 = 0.7612	x1 = 0.8484	x1 = 0.9217
303.15 K	2.83 ± 0.08	3.17 ± 0.09	3.4 ± 0.09	3.69 ± 0.1	3.92 ± 0.11	4.2 ± 0.11	4.38 ± 0.12	4.58 ± 0.12	4.75 ± 0.13
308.15 K	2.5 ± 0.07	2.83 ± 0.08	3.05 ± 0.08	3.33 ± 0.09	3.55 ± 0.1	3.82 ± 0.1	4 ± 0.11	4.19 ± 0.11	4.35 ± 0.12
313.15 K	2.11 ± 0.06	2.44 ± 0.07	2.67 ± 0.07	2.96 ± 0.08	3.19 ± 0.09	3.47 ± 0.09	3.65 ± 0.1	3.85 ± 0.1	4.01 ± 0.11
318.15 K	1.82 ± 0.05	2.15 ± 0.06	2.38 ± 0.06	2.66 ± 0.07	2.9 ± 0.08	3.17 ± 0.09	3.35 ± 0.09	3.55 ± 0.1	3.71 ± 0.1

OCCNCCO + OCCO
298 K, 101.3 kPa
Details	viscosity [mPa·s]
x1 = 0.0049	17.27 ± 0.62
x1 = 0.01	17.72 ± 0.64
x1 = 0.044	20.95 ± 0.75
x1 = 0.07152	25.16 ± 0.89
x1 = 0.09514	28.03 ± 0.98
x1 = 0.1331	37.15 ± 1.3
